{
  "source": "PubChem BioAssay (NCI)",
  "test_in_all_cases": "NCI anticancer screen, dose series, 48 h",
  "key": {"SF-539 CNS": {"tested_on": "SF-539 CNS"}, "IGROV1 ovarian": {"tested_on": "IGROV1 ovarian"}, "HOP-62 NSCLC": {"tested_on": "HOP-62 NSCLC"}, "SK-MEL-2 melanoma": {"tested_on": "SK-MEL-2 melanoma"}, "SK-MEL-28 melanoma": {"tested_on": "SK-MEL-28 melanoma"}, "UACC-257 melanoma": {"tested_on": "UACC-257 melanoma"}, "SN12C renal": {"tested_on": "SN12C renal"}, "HL-60(TB) leukemia": {"tested_on": "HL-60(TB) leukemia"}, "MCF7 breast": {"tested_on": "MCF7 breast"}, "SF-268 CNS": {"tested_on": "SF-268 CNS"}, "UACC-62 melanoma": {"tested_on": "UACC-62 melanoma"}, "COLO 205 colon": {"tested_on": "COLO 205 colon"}, "A549 NSCLC": {"tested_on": "A549 NSCLC"}, "SW-620 colon": {"tested_on": "SW-620 colon"}, "SNB-19 CNS": {"tested_on": "SNB-19 CNS"}, "EKVX NSCLC": {"tested_on": "EKVX NSCLC"}, "MOLT-4 leukemia": {"tested_on": "MOLT-4 leukemia"}, "CCRF-CEM leukemia": {"tested_on": "CCRF-CEM leukemia"}, "TK-10 renal": {"tested_on": "TK-10 renal"}, "K-562 leukemia": {"tested_on": "K-562 leukemia"}, "NCI-H460 lung": {"tested_on": "NCI-H460 lung"}, "NCI-H522 lung": {"tested_on": "NCI-H522 lung"}, "HCT-15 colon": {"tested_on": "HCT-15 colon"}, "OVCAR-3 ovarian": {"tested_on": "OVCAR-3 ovarian"}, "MALME-3M melanoma": {"tested_on": "MALME-3M melanoma"}, "OVCAR-4 ovarian": {"tested_on": "OVCAR-4 ovarian"}, "MDA-MB-231 breast": {"tested_on": "MDA-MB-231 breast"}, "SR leukemia": {"tested_on": "SR leukemia"}, "M14 melanoma": {"tested_on": "M14 melanoma"}, "UO-31 renal": {"tested_on": "UO-31 renal"}, "HT29 colon": {"tested_on": "HT29 colon"}, "NCI-H226 lung": {"tested_on": "NCI-H226 lung"}, "ACHN renal": {"tested_on": "ACHN renal"}, "SF-295 CNS": {"tested_on": "SF-295 CNS"}, "CAKI-1 renal": {"tested_on": "CAKI-1 renal"}, "T-47D breast": {"tested_on": "T-47D breast"}, "HCT-116 colon": {"tested_on": "HCT-116 colon"}, "SNB-75 CNS": {"tested_on": "SNB-75 CNS"}, "NCI-H23 lung": {"tested_on": "NCI-H23 lung"}, "LOX IMVI melanoma": {"tested_on": "LOX IMVI melanoma"}, "BT-549 breast": {"tested_on": "BT-549 breast"}, "SK-OV-3 ovarian": {"tested_on": "SK-OV-3 ovarian"}, "OVCAR-5 ovarian": {"tested_on": "OVCAR-5 ovarian"}, "DU-145 prostate": {"tested_on": "DU-145 prostate"}, "HOP-92 NSCLC": {"tested_on": "HOP-92 NSCLC"}, "NCI/ADR-RES ovarian": {"tested_on": "NCI/ADR-RES ovarian"}, "HS 578T breast": {"tested_on": "HS 578T breast"}, "KM12 colon": {"tested_on": "KM12 colon"}, "HCC-2998 colon": {"tested_on": "HCC-2998 colon"}, "MDA-MB-435": {"tested_on": "MDA-MB-435"}, "786-0 renal": {"tested_on": "786-0 renal"}, "U251 CNS": {"tested_on": "U251 CNS"}, "SK-MEL-5 melanoma": {"tested_on": "SK-MEL-5 melanoma"}, "A498 renal": {"tested_on": "A498 renal"}, "OVCAR-8 ovarian": {"tested_on": "OVCAR-8 ovarian"}},
  "note": "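Values below derive from 48-hour exposures of cells grown in 96-well plates, with endpoints linearly interpolated between the two concentrations bracketing the appropriate inhibition level. TGI denotes the concentration required for complete inhibition of growth.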",
  "data": [
    {"compound": "C#CC1(OC(C)=O)CCC2C3CC=C4C=C(OC(C)=O)CCC4(C)C3CCC21C", "note": "(stereo not given)", "values": [
      {"measurement": "TGI", "setting": "SF-539 CNS", "result": 40.1, "unit": "µM"},
      {"measurement": "TGI", "setting": "IGROV1 ovarian", "result": 35.9, "unit": "µM"},
      {"measurement": "TGI", "setting": "HOP-62 NSCLC", "result": "> 100", "unit": "µM"},
      {"measurement": "TGI", "setting": "SK-MEL-2 melanoma", "result": 41.1, "unit": "µM"},
      {"measurement": "TGI", "setting": "SK-MEL-28 melanoma", "result": 53.6, "unit": "µM"},
      {"measurement": "TGI", "setting": "UACC-257 melanoma", "result": 35.3, "unit": "µM"},
      {"measurement": "TGI", "setting": "SN12C renal", "result": 45.1, "unit": "µM"},
      {"measurement": "TGI", "setting": "HL-60(TB) leukemia", "result": "> 100", "unit": "µM"},
      {"measurement": "TGI", "setting": "MCF7 breast", "result": 49.9, "unit": "µM"},
      {"measurement": "TGI", "setting": "SF-268 CNS", "result": 48.4, "unit": "µM"},
      {"measurement": "TGI", "setting": "UACC-62 melanoma", "result": 44.5, "unit": "µM"},
      {"measurement": "TGI", "setting": "COLO 205 colon", "result": 58.5, "unit": "µM"},
      {"measurement": "TGI", "setting": "A549 NSCLC", "result": "> 100", "unit": "µM"},
      {"measurement": "TGI", "setting": "SW-620 colon", "result": 49.3, "unit": "µM"},
      {"measurement": "TGI", "setting": "SNB-19 CNS", "result": "> 100", "unit": "µM"},
      {"measurement": "TGI", "setting": "EKVX NSCLC", "result": 80, "unit": "µM"},
      {"measurement": "TGI", "setting": "MOLT-4 leukemia", "result": 33.3, "unit": "µM"},
      {"measurement": "TGI", "setting": "CCRF-CEM leukemia", "result": 30.5, "unit": "µM"},
      {"measurement": "TGI", "setting": "TK-10 renal", "result": 51.6, "unit": "µM"},
      {"measurement": "TGI", "setting": "K-562 leukemia", "result": 83.2, "unit": "µM"},
      {"measurement": "TGI", "setting": "NCI-H460 lung", "result": 61.8, "unit": "µM"},
      {"measurement": "TGI", "setting": "NCI-H522 lung", "result": 34.9, "unit": "µM"},
      {"measurement": "TGI", "setting": "HCT-15 colon", "result": 62.5, "unit": "µM"},
      {"measurement": "TGI", "setting": "OVCAR-3 ovarian", "result": 41.5, "unit": "µM"},
      {"measurement": "TGI", "setting": "MALME-3M melanoma", "result": 33.9, "unit": "µM"},
      {"measurement": "TGI", "setting": "OVCAR-4 ovarian", "result": 72.2, "unit": "µM"},
      {"measurement": "TGI", "setting": "MDA-MB-231 breast", "result": 58.3, "unit": "µM"},
      {"measurement": "TGI", "setting": "SR leukemia", "result": 35, "unit": "µM"},
      {"measurement": "TGI", "setting": "M14 melanoma", "result": 70.3, "unit": "µM"},
      {"measurement": "TGI", "setting": "UO-31 renal", "result": 54.4, "unit": "µM"},
      {"measurement": "TGI", "setting": "HT29 colon", "result": 40, "unit": "µM"},
      {"measurement": "TGI", "setting": "NCI-H226 lung", "result": 63, "unit": "µM"},
      {"measurement": "TGI", "setting": "ACHN renal", "result": 70.7, "unit": "µM"},
      {"measurement": "TGI", "setting": "SF-295 CNS", "result": 62, "unit": "µM"},
      {"measurement": "TGI", "setting": "CAKI-1 renal", "result": 83.2, "unit": "µM"},
      {"measurement": "TGI", "setting": "T-47D breast", "result": "> 100", "unit": "µM"},
      {"measurement": "TGI", "setting": "HCT-116 colon", "result": 44.3, "unit": "µM"},
      {"measurement": "TGI", "setting": "SNB-75 CNS", "result": "> 100", "unit": "µM"},
      {"measurement": "TGI", "setting": "NCI-H23 lung", "result": 47.1, "unit": "µM"},
      {"measurement": "TGI", "setting": "LOX IMVI melanoma", "result": 53.2, "unit": "µM"},
      {"measurement": "TGI", "setting": "BT-549 breast", "result": 83.1, "unit": "µM"},
      {"measurement": "TGI", "setting": "SK-OV-3 ovarian", "result": "> 100", "unit": "µM"},
      {"measurement": "TGI", "setting": "OVCAR-5 ovarian", "result": "> 100", "unit": "µM"},
      {"measurement": "TGI", "setting": "DU-145 prostate", "result": 97.4, "unit": "µM"},
      {"measurement": "TGI", "setting": "HOP-92 NSCLC", "result": 32.9, "unit": "µM"},
      {"measurement": "TGI", "setting": "NCI/ADR-RES ovarian", "result": 79.3, "unit": "µM"},
      {"measurement": "TGI", "setting": "HS 578T breast", "result": "> 100", "unit": "µM"},
      {"measurement": "TGI", "setting": "KM12 colon", "result": 40.2, "unit": "µM"},
      {"measurement": "TGI", "setting": "HCC-2998 colon", "result": 32.9, "unit": "µM"},
      {"measurement": "TGI", "setting": "MDA-MB-435", "result": 45.2, "unit": "µM"},
      {"measurement": "TGI", "setting": "786-0 renal", "result": 85.5, "unit": "µM"},
      {"measurement": "TGI", "setting": "U251 CNS", "result": 38.9, "unit": "µM"},
      {"measurement": "TGI", "setting": "SK-MEL-5 melanoma", "result": 34.1, "unit": "µM"},
      {"measurement": "TGI", "setting": "A498 renal", "result": "> 100", "unit": "µM"},
      {"measurement": "TGI", "setting": "OVCAR-8 ovarian", "result": 46.3, "unit": "µM"}
    ]}
  ]
}
